The values that follow come from EP0081425B1, “Pharmaceutical compositions having normolipemic properties and containing compounds of the n-substituted benzenesulfonamide type” (priority 1981, dated 1983).

Where two headings read alike, the source gives them in different places. Some results are limits rather than exact numbers.

Data set [1] relates to hyperlipidémie provoquée par l'administration de TRITON®. The experiment in a line: Triton test: hyperlipidemia induced by i.v. TRITON W.R. in fasted rats. The class given is in vivo, rats WISTAR mâles. The conditions noted are these: for Cholestérol estérifié Score (par rapport au clofibrate compté pour 1) / Cholestérol total Score (par rapport au clofibrate compté pour 1) / Lipides totaux Score (par rapport au clofibrate compté pour 1) / Triglycérides Score (par rapport au clofibrate compté pour 1): ratio to clofibrate of the same series; for inhibition in vivo at 250 mg/kg: Rattus norvegicus, po, blood assayed 6 h and/or 24 h later. From the text: Dans une première série d'expériences, des produits ont été testés sur une hyperlipidémie provoquée par l'administration de TRITON® selon le protocole suivant.
Les essais ont été réalisés sur des groupes de cinq rats WISTAR mâles dont le poids varie de 150 à 175 g.
Pour effectuer ces essais, on provoque une hyperlipidémie chez les animaux, au moyen du produit commercialisé par la Société ROHM and HAAS sous le nom de TRITON® W. R.
On observe, sur cette hyperlipidémie, les effets obtenus par administration des substances actives selon l'invention.
Les essais sont réalisés comme suit : • les rats sont mis à jeûner pendant 18 heures, puis on administre le TRITON® W.R. par voie intraveineuse en solution aqueuse à 10 % à raison de 200 mg/kg ;
6 heures et/ou 24 heures plus tard, on effectue les dosages sur le sang de façon traditionnelle.
Dans la première colonne, on a indiqué le numéro du composé testé.
Dans la deuxième colonne, on a indiqué le nombre d'animaux qui ont été soumis au test.
Dans les quatre dernières colonnes, on a indiqué les résultats relatifs respectivement : • aux lipides totaux, • aux triglycérides, • au cholestérol total, • au cholestérol estérifié.
Dans chacune de ces colonnes, on indique : • a) le pourcentage de diminution par rapport au témoin TRITON; • b) le score par rapport au clofibrate de référence, c'est-à-dire le rapport de l'intensité de l'activité du produit testé vis-à-vis de celle,de l'activité au clofibrate comptée pour 1.

Data set [2] can be described thus: Acute oral toxicity (lethal dose). As to conditions: mouse, in vivo, po, oral, read-out: DL50 (the source's name) (converted). It counts as in vivo. From the text:
(§1) La toxioité aiguë est exprimée par la dose létale 50, c'est-à-dire la dose létale entraînant la mort de 50 % des animaux.
(§2) Cette étude a été effectuée sur des souris mâles et femelles auxquelles on a administré les produits à tester par voie orale à des concentrations différentes et on a mesuré la létalité sur dix souris mâles et sur 10 souris femelles.

In another data set the test system is souris mâles et femelles. The experiment in a line: Acute oral toxicity (lethal dose). It counts as in vivo. The conditions noted are these: for DL0 / DL100: oral.
Source text: as §1, §2

Data set [3] deals with animaux ayant reçu pendant une durée prolongée un régime athéromateux. The experiment in a line: Atheromatous diet test (cholesterol/cholic acid diet + vitamin D2): biochemical, macroscopic and microscopic examinations. The class given is in vivo, rats WISTAR femelles. The text has this: Dans une deuxième série expérimentale, on a testé l'activité de certains produits de l'invention sur des animaux ayant reçu pendant une durée prolongée un régime athéromateux.
L'essai s'effectue sur des rats WISTAR femelles, d'un poids d'environ 160-180 g.
Les animaux reçoivent une alimentation provenant de l'usine d'alimentation nationale de Villemois- son-Sur-Orge, France, et désignée sous la référence UAR A03, enrichie en cholestérol (0,5 %) et en acide cholique (0,5 %).
Après 15 jours de régime athéromateux et tout en maintenant les animaux sous régime athéromateux, on leur administre par voie orale pendant 4 jours 250 000 ui/kg de vitamine D2 commercialisée sous le nom de Stérogyl 25H, en solution dans de l'huile d'olive.
On administre ensuite les produits à étudier pendant 4 semaines, dès la fin de l'administration de l'agent lésionnel.
La quantité de produit administrée aux animaux est de 100 mg/kg.
En fin d'étude, on effectue sur tous les animaux des examens biochimiques (cholestérol total, cholesterol high density lipoprotein (HDL) et cholesterol low density lipoprotein (LDL), et triglycérides).
En fin d'étude, tous les animaux encore vivants sont sacrifiés, et l'on prélève divers organes dont particulièrement l'aorte, pour l'étude histologique de cette dernière. Deux critères sont étudiés : le nombre de zones athéromateuses et l'intensité des lésions.
Le calcul des cotations s'effectue de la façon suivante : • en ce qui concerne l'intensité des lésions, on effectue une cotation allant de 0 pour l'absence de lésion à […] pour les lésions les plus fortes, et ceci pour chaque type d'altération considéré (augmentation des espaces interlamellalres, interruption des lames élastiques, épaississement des lames élastiques, dépôt de calcium, dépôt de mucopolysaccharides); puis on fait l'addition de la totalité des résultats par lot d'animaux; • en ce qui concerne le nombre de zones athéromateuses, par comptage de ces dernières et addition de la totalité des chiffres obtenus par lot d'animaux.
On calcule ensuite le pourcentage de diminution par rapport aux témoins régime et le score, c'est-à-dire le rapport de l'intensité de l'activité du produit testé vis-à-vis de celle de l'activité du clofibrate, compté pour 1.
Le tableau IV donne les résultats détaillés des examens biochimiques : • a) en % de diminution par rapport au témoin régime; • b) en score, par rapport au produit de référence, le clofibrate, ce dernier étant compté pour 1.
Le tableau V donne le résultat des examens macroscopiques : • a) en % de diminution des animaux atteints de lésions; • b) en score par rapport au clofibrate de référence, dont le score est compté pour 1.
Le tableau VI donne les résultats microscopiques avec cotation histologique concernant l'intensité des lésions, et le nombre de zones athéromateuses.

The mark [4] stands for this setting: 250 mg/kg oral, given with TRITON W.R. 200 mg/kg i.v., read-out: Cholestérol estérifié % (pourcentage de diminution par rapport au témoin TRITON).
Setting [5] is: 250 mg/kg oral, given with TRITON W.R. 200 mg/kg i.v., read-out: Cholestérol total % (pourcentage de diminution par rapport au témoin TRITON).
The mark [6] stands for this setting: 250 mg/kg oral, given with TRITON W.R. 200 mg/kg i.v., read-out: Triglycérides % (pourcentage de diminution par rapport au témoin TRITON).
[7] abbreviates: read-out: Lipides totaux % (pourcentage de diminution par rapport au témoin TRITON), 250 mg/kg oral, given with TRITON W.R. 200 mg/kg i.v.
Where [8] appears, read: macroscopic examination, 100 mg/kg for 4 weeks.

Turning to `CCC(CO)NS(=O)(=O)c1cc(Cl)c([N+](=O)[O-])cc1OC` (stereo not drawn) [compound 316], in data set [1] (250 mg/kg oral), the “Cholestérol estérifié Score (par rapport au clofibrate compté pour 1)” value (from here on “Cholestérol estérifié Score”) is recorded as 0,63. Moreover, in data set [1] (250 mg/kg oral), the “Cholestérol total Score (par rapport au clofibrate compté pour 1)” value (“Cholestérol total Score” below) is on record as 1,17. Also, the “Lipides totaux Score (par rapport au clofibrate compté pour 1)” value (from here on “Lipides totaux Score”) in data set [1] (250 mg/kg oral) is 3,09. Moreover, the inhibition in vivo at 250 mg/kg came out at 31.2% in data set [1] (setting [4]), 11.1% in data set [1] (setting [5]), 0% in data set [1] (setting [6]) and 42.6% in data set [1] (setting [7]). Also, the LD50 is over 15000 mg/kg in data set [2] (Souris femelles) and 18500 mg/kg in data set [2] (Souris mâles). Moreover, the DL0 is recorded as ≥ 15 000 mg/kg in the data set with souris mâles et femelles (Souris femelles) and 15 000 mg/kg in the data set with souris mâles et femelles (Souris mâles). In addition, the results for the DL100 in the data set with souris mâles et femelles (Souris femelles) and in the data set on souris mâles et femelles (Souris mâles) were > 15 000 mg/kg and > 20 000 mg/kg, respectively. The “toxicité par voie digestive” value with souris mâles et femelles (conclusion in words from all results) is listed as “pratiquement dénué de toxicité par voie digestive”.
Consider `COc1cc(N)ccc1S(=O)(=O)NCCO` [compound 278], for which the “Cholestérol estérifié Score” value in data set [1] (250 mg/kg oral) is on record as 0,65. The inhibition in vivo at 250 mg/kg in data set [1] (setting [4]) is 22%; in data set [1] (setting [5]), 0%; in data set [1] (setting [6]), 4.5%.
In the case of `COc1cc([N+](=O)[O-])c(Cl)cc1S(=O)(=O)N(C)CCO` [compound 329], in data set [1] (250 mg/kg oral), the “Lipides totaux Score” value was 0,84. In addition, the inhibition in vivo at 250 mg/kg in data set [1] (setting [4]) was 0%; in data set [1] (setting [5]), 0%; in data set [1] (setting [6]), 40%; in data set [1] (setting [7]) it was 37.6%.
In the case of `CCC(CO)NS(=O)(=O)c1cc(Cl)c(N)cc1OC` (stereo not drawn) [compound 317], the “Cholestérol estérifié Score” value in data set [1] (250 mg/kg oral) is given as 0,52. For the same compound, the “Cholestérol total Score” value in data set [1] (250 mg/kg oral) is recorded as 0,17. Also, the “Lipides totaux Score” value in data set [1] (250 mg/kg oral) was 3,11. Also, the inhibition in vivo at 250 mg/kg in data set [1] (setting [4]) worked out at 25.4%; in data set [1] (setting [5]), 1.6%; in data set [1] (setting [6]), 0%; in data set [1] (setting [7]) it was 42.9%.
On to `COc1cc([N+](=O)[O-])c(Cl)cc1S(=O)(=O)NCC(C)O` (stereo not drawn) [compound 322, chloro-5 N-(hydroxy-2 propyl) méthoxy-2 nitro-4 benzènesulfonamide], for which the “Cholestérol estérifié Score” value in data set [1] (250 mg/kg oral) is listed as 0,27. The “Cholestérol total Score” value in data set [1] (250 mg/kg oral) is reported as 0,83. Besides, the “Lipides totaux Score” value in data set [1] (250 mg/kg oral) is recorded as 3,15. In addition, the “Triglycérides Score (par rapport au clofibrate compté pour 1)” value (from here on “Triglycérides Score”) in data set [1] (250 mg/kg oral) is reported as 1,02. Further, the inhibition in vivo at 250 mg/kg was found to be 13.1% in data set [1] (setting [4]), 7.9% in data set [1] (setting [5]), 73.4% in data set [1] (setting [6]) and 43.5% in data set [1] (setting [7]).
In the case of `COc1ccc(Cl)cc1S(=O)(=O)N(C)CCO` [compound 324], the “Cholestérol estérifié Score” value in data set [1] (250 mg/kg oral) is on record as 0,52. In data set [1] (250 mg/kg oral), the “Cholestérol total Score” value is given as 2,85. The “Lipides totaux Score” value in data set [1] (250 mg/kg oral) is listed as 0,58. Also, the inhibition in vivo at 250 mg/kg in data set [1] (setting [4]) stood at 22.6%; in data set [1] (setting [5]), 26.2%; in data set [1] (setting [6]), 19.4%; in data set [1] (setting [7]), 25.9%.
On to `CCOC(=O)C(C)(C)Oc1ccc(Cl)cc1` [Clofibrate], for which, in data set [1] (250 mg/kg oral), the “Cholestérol estérifié Score” value is recorded as 1,00, the “Cholestérol total Score” value is given as 1,00, the “Lipides totaux Score” value was 1,00 and the “Triglycérides Score” value is 1,00. Further, in data set [3] (100 mg/kg for 4 weeks), the “CHOLESTEROL HDL Score (clofibrate compté pour 1)” value is 1,00, the “CHOLESTEROL LDL Score (clofibrate compté pour 1)” value is given as 1,00, the “CHOLESTEROL T Score (clofibrate compté pour 1)” value is 1,00 and the “TRIGLYCERIDES Score (clofibrate compté pour 1)” value is listed as 1,00. In data set [3] (setting [8]), the “ANIMAUX ATTEINTS %” value is 81,82% and the “ANIMAUX ATTEINTS SCORE CLOFIBRATE” value is 1,00. Further, in data set [3] (microscopic examination), the “NOMBRE DE ZONES ATHEROMATEUSES POUR 15 ANIMAUX Score Clofibrate” value is 1,00. The “COTATION HISTOLOGIQUE Cotation” value in data set [3] (microscopic examination of the aorta, intensity of lesions, sum per group, 100 mg/kg for 4 weeks) is listed as 49,10. For the same compound, the “NOMBRE DE ZONES ATHEROMATEUSES POUR 15 ANIMAUX Cotation” value in data set [3] (microscopic examination of the aorta, 100 mg/kg for 4 weeks) is 72,30. Further, in data set [3] (microscopic examination, intensity of lesions), the “COTATION HISTOLOGIQUE Score Clofibrate” value is reported as 1,00.
As to `COc1cc([N+](=O)[O-])c(Cl)cc1S(=O)(=O)NCCO` [compound 281, chloro-5 N-(hydroxy-2 éthyl) méthoxy-2 nitro-4 benzènesulfonamide], the “Cholestérol estérifié Score” value in data set [1] (250 mg/kg oral) is 0,13. Further, the “Cholestérol total Score” value in data set [1] (250 mg/kg oral) is reported as 0,75. The “Lipides totaux Score” value in data set [1] (250 mg/kg oral) is recorded as 0,25. The inhibition in vivo at 250 mg/kg in data set [1] (setting [4]) was determined as 4.9%; in data set [1] (setting [5]), 13.3%; in data set [1] (setting [6]) it was 0%; in data set [1] (setting [7]) it was 11.3%.
As for `CCC(CO)NS(=O)(=O)c1cc([N+](=O)[O-])ccc1OC` (stereo not drawn) [compound 314], in data set [1] (250 mg/kg oral), the “Lipides totaux Score” value is listed as 1,02. The “Triglycérides Score” value in data set [1] (250 mg/kg oral) is 0,04. Further, the inhibition in vivo at 250 mg/kg in data set [1] (setting [4]) was 44%; in data set [1] (setting [5]) it was 42.1%; in data set [1] (setting [6]), 1.2%; in data set [1] (setting [7]), 25.9%.
